Source: US6838476B1, “Imidazoles with anti-inflammatory activity” (J. Uriach & Cia, SA, priority 1998, dated 2005)

Experiments:
cyclooxygenase-1 (COX-1) = target: T1, cyclooxygenase-1 (COX-1) (Homo sapiens, UniProt P23219); assay: Inhibition of cyclooxygenase-1 (COX-1) activity in human blood (thromboxane B2 levels after ionophore A23187); format: cell-based; conditions: for inhibition at 10 µM: read-out: % inhibition COX-1 (10 μM), 10 μM test compound; for % inhibition COX-1 (10 μM): 10 μM test compound
T1 construct: from tissue; host or cells: heparinized human whole blood
Experimental: (§1) Inhibition of cyclooxgenase-1 (COX-1) and cyclooxygenase-2 (COX-2) Activity in Human Blood
Heparinized human blood from healthy volunteers who had not taken non-steroidal anti-inflammatory drugs (NSAIDs) for a week, and neither alcohol nor xanthines 24 h before blood collection, is used. Blood is divided into two groups; one will be used to determine COX-1 activity and the other one for COX-2. The procedure to follow will be different in each case.
For COX-1, 12-mL tubes are used. 5 μL of the test compound (in DMSO solution; in duplicate) are placed in each tube. Aditionally two tubes for blanks and two tubes for controls containing 5 μL of DMSO are used. Next, 1 mL of blood is added to each tube and they are stirred. The tubes are placed in a thermostatized bath at 37° C. for 5 h. Then, 5 μL of 5 mM ionophore A23187 is added to each tube, except to the blanks, and tubes are incubated for 30 min more at 37° C. After this time, the tubes are placed in ice and 100 μL of a 100 mM EGTA solution is added to stop the reaction. 2.5 mL of methanol is added to each tube to reach a final concentration of 70%. The tubes are stirred and frozen at −70° C. till their use. The COX-1 activity is determined by measuring thromboxane B2 levels in the samples. Blood is defrozen and centrifuged at 2000 g for 10 min at 4° C. 1 mL of supematant is evaporated under nitrogen to dryness. The solid residue thus obtained is resuspended in 1 mL of saline and the thromboxane B2 levels in these samples are determined using a kit (Kit Thromboxane B2, Biotrak EIA system RPN220 Amershan), according to the manufacturer's instructions.

cyclooxygenase-2 (COX-2) = target: T2, cyclooxygenase-2 (COX-2) (Homo sapiens, UniProt P35354); assay: Inhibition of cyclooxygenase-2 (COX-2) activity in human blood (prostaglandin E2 levels after LPS, aspirin added); format: cell-based; conditions: for inhibition at 1 µM: read-out: % inhibition COX-2 (1 μM), 1 μM test compound; for inhibition at 10 µM: read-out: % inhibition COX-2 (10 μM), 10 μM test compound; for % inhibition COX-2 (1 μM): 1 μM test compound; for % inhibition COX-2 (10 μM): 10 μM test compound
T2 construct: 5 μL of LPS is also added (in order to induce COX-2 activy); from tissue; host or cells: heparinized human whole blood, LPS-stimulated, with aspirin added
T2 sequence (P35354 18-604): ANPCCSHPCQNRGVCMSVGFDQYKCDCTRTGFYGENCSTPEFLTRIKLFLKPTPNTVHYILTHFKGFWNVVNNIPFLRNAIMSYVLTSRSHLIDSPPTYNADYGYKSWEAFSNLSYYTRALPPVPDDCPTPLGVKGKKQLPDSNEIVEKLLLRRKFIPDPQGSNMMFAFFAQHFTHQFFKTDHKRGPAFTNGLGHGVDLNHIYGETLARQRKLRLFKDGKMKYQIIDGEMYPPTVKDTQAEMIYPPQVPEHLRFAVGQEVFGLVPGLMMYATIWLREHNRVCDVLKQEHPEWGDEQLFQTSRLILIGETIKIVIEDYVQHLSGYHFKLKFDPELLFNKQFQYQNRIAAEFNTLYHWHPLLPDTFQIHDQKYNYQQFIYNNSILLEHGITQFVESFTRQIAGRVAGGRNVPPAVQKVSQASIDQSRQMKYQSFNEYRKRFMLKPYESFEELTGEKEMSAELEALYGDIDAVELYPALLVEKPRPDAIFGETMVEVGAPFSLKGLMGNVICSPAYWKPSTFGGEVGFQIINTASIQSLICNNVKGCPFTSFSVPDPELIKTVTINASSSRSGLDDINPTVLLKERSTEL
Experimental: as §1
Blood is divided into two groups; one will be used to determine COX-1 activity and the other one for COX-2. The procedure to follow will be different in each case.
For COX-2, 3-mL tubes are prepared in duplicate containing 5 μL of the test compound (solution in DMSO) and 5 μL of vehicle in the case of blanks and controls. To each tube, 5 μL of a 2 mg/mL solution of aspirin in DMSO is also added (in order to inhibit COX-1 activity), and to all tubes except the blanks 5 μL of LPS is also added (in order to induce COX-2 activy). Finally, 1 mL of heparinized blood is added to each tube, and tubes are then stirred and placed in a thermostatized bath at 37° C. for 24 h. Then, tubes are centrifuged at 2000 g for 10 min at 4° C., the resulting plasma is collected and is frozen at −70° C. until use. COX-2 activity is determined by measuring prostaglandin E2 levels in the samples. The plasma stored at −70° C. is defrozen and prostaglandin E2 levels in these samples are determined using a kit (Kit Prostaglandin E2, Biotrak EIA system RPN222 Amershan), according to the manufacturer's instructions.

T1 sequence (P23219 24-599): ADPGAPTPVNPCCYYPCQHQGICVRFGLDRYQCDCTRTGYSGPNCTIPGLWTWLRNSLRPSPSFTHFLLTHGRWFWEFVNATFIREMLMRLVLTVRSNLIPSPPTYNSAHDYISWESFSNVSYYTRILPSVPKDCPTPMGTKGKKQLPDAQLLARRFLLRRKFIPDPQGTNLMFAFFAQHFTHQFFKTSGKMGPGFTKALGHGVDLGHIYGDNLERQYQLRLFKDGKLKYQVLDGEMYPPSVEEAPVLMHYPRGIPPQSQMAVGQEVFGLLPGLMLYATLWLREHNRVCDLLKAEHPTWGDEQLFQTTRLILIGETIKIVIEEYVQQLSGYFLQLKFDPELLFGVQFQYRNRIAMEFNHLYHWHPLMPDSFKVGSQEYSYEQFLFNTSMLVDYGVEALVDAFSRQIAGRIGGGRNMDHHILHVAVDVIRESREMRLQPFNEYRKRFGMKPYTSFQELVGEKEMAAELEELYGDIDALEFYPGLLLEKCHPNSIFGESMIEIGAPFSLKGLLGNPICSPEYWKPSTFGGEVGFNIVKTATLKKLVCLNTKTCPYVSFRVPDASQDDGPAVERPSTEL

Compound: Cc1ccc(-n2c(-c3ccc(S(C)(=O)=O)cc3)cnc2Cl)cc1 [Example 12, 2-Chloro-1-(4-methylphenyl)-5-(4-methylsulfonylphenyl)imidazole]
- melting point: 156 to 160 °C
- inhibition at 10 µM (cyclooxygenase-1 (COX-1)): 70.6%
- inhibition at 1 µM (cyclooxygenase-2 (COX-2)): 83.6%
- inhibition at 10 µM (cyclooxygenase-2 (COX-2)): 100%

Compound: CS(=O)(=O)c1ccc(-n2cnc(Cl)c2-c2ccc(Cl)nc2Cl)cc1 [4(17)]
- % inhibition COX-1 (10 μM) (cyclooxygenase-1 (COX-1)): 22.7%
- % inhibition COX-2 (1 μM) (cyclooxygenase-2 (COX-2)): 65%
- % inhibition COX-2 (10 μM) (cyclooxygenase-2 (COX-2)): 86.3%

Compound: Cc1ccc(-c2c(Cl)ncn2-c2ccc(S(N)(=O)=O)cc2)cc1 [13(3), 4-[4-Chloro-5-(4-methylphonyl)imidazol-1-yl]benzenesulfonamide]
- % inhibition COX-1 (10 μM) (cyclooxygenase-1 (COX-1)): 71.3%
- % inhibition COX-2 (1 μM) (cyclooxygenase-2 (COX-2)): 76.1%
- % inhibition COX-2 (10 μM) (cyclooxygenase-2 (COX-2)): 100%

Compound: Cc1ncn(-c2ccc(S(C)(=O)=O)cc2)c1-c1ccc(F)cc1 [Example 3, 5-(4-Fluorophenyl)-4-methyl-1-(4-methylsulfonylphenyl)imidazole]
- inhibition at 10 µM (cyclooxygenase-1 (COX-1)): 8.3%
- inhibition at 10 µM (cyclooxygenase-2 (COX-2)): 86.5%

Compound: CS(=O)(=O)c1ccc(-c2cnc(C#N)n2-c2ccc(F)cc2)cc1 [Example 10, 1-(4-Fluorophenyl)-5-(4-methylsulfonylphenyl)imidazol-2-carbonitrile]
- inhibition at 10 µM (cyclooxygenase-1 (COX-1)): 52.7%
- inhibition at 1 µM (cyclooxygenase-2 (COX-2)): 74%
- inhibition at 10 µM (cyclooxygenase-2 (COX-2)): 100%

Compound: Cc1ccc(-c2c(Cl)ncn2-c2ccc(S(C)(=O)=O)cc2)cn1 [4(11), 4-Chloro-5-(6-methyl-3-pyridyl)-1-(4-methylsulfonylphenyl)imidazole]
- inhibition at 10 µM (cyclooxygenase-1 (COX-1)): 39.7%
- inhibition at 1 µM (cyclooxygenase-2 (COX-2)): 58.4%
- inhibition at 10 µM (cyclooxygenase-2 (COX-2)): 100%

Compound: Cc1ccc(-c2c(Cl)ncn2-c2ccc(S(C)(=O)=O)cc2)cc1 [4(1), 4-Chloro-5-(4-methylphenyl)-1-(4-methylsulfonylphenyl)imidazole]
- inhibition at 10 µM (cyclooxygenase-1 (COX-1)): 34%
- inhibition at 10 µM (cyclooxygenase-2 (COX-2)): 100%

Compound: CS(=O)(=O)c1ccc(-c2cnc(Cl)n2-c2ccc(F)cc2)cc1 [Example 7, 2Chloro-1-(4-fluorophenyl)-5-(4-methylsulfonylphenyl)imidazole]
- inhibition at 10 µM (cyclooxygenase-1 (COX-1)): 60.1%
- inhibition at 1 µM (cyclooxygenase-2 (COX-2)): 85.6%
- inhibition at 10 µM (cyclooxygenase-2 (COX-2)): 100%
